From ChEMBL document CHEMBL1201862, “PubChem BioAssay data set” (2004)
Activity calls are given as the source filed them.

Legend:
[1] = cytotoxicity in HPDE-C7 cells, cell-based, fluorescence, HTS (AID 430); type: functional; details: Homo sapiens
[2] = cytotoxicity in KRAS-transformed pancreatic duct cells, primary screen, cell-based, fluorescence, HTS (AID 431); type: functional; details: Homo sapiens;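 note: cell line used: HPDE-C7K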
[3] = target: T1, Aspartyl aminopeptidase (Plasmodium falciparum 3D7, UniProt Q8I2J3); assay: Counterscreen for inhibitors of M1 and M17 aminopeptidases: QFRET-based biochemical high throughput dose response assay for inhibitors of the Plasmodium falciparum M18 Aspartyl Aminopeptidase (PFM18AAP). [Related PubChem assays: 1619 (Screening assay (M17LAP inhibitors).), 1445 (Screening assay (M1AAP inhibitors).)]
T1 sequence (Q8I2J3 whole entry): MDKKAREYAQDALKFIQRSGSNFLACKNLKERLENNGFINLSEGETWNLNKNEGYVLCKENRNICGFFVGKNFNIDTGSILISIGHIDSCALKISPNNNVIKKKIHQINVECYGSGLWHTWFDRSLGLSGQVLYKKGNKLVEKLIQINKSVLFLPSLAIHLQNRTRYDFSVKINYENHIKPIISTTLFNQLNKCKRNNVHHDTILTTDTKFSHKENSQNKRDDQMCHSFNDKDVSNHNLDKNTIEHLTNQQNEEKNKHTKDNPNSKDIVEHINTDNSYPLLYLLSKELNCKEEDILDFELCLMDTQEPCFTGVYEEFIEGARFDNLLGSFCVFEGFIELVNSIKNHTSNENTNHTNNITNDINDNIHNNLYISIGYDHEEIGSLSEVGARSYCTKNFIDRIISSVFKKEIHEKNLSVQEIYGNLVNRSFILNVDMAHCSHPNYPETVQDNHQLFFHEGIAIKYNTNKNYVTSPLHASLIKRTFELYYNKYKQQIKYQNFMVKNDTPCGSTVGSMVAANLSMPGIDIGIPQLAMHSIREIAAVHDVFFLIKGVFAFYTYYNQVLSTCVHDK

[4] = target: T2, Aminopeptidase N (Plasmodium falciparum FcB1/Columbia, UniProt O96935); assay: P. falciparum M1AAP inhibitors, biochemical, fluorogenic H-Leu-NHMec substrate, 1536-well (AID 1445); design: species or system Plasmodium falciparum 3D7, 3D7
T2 sequence (O96935 whole entry): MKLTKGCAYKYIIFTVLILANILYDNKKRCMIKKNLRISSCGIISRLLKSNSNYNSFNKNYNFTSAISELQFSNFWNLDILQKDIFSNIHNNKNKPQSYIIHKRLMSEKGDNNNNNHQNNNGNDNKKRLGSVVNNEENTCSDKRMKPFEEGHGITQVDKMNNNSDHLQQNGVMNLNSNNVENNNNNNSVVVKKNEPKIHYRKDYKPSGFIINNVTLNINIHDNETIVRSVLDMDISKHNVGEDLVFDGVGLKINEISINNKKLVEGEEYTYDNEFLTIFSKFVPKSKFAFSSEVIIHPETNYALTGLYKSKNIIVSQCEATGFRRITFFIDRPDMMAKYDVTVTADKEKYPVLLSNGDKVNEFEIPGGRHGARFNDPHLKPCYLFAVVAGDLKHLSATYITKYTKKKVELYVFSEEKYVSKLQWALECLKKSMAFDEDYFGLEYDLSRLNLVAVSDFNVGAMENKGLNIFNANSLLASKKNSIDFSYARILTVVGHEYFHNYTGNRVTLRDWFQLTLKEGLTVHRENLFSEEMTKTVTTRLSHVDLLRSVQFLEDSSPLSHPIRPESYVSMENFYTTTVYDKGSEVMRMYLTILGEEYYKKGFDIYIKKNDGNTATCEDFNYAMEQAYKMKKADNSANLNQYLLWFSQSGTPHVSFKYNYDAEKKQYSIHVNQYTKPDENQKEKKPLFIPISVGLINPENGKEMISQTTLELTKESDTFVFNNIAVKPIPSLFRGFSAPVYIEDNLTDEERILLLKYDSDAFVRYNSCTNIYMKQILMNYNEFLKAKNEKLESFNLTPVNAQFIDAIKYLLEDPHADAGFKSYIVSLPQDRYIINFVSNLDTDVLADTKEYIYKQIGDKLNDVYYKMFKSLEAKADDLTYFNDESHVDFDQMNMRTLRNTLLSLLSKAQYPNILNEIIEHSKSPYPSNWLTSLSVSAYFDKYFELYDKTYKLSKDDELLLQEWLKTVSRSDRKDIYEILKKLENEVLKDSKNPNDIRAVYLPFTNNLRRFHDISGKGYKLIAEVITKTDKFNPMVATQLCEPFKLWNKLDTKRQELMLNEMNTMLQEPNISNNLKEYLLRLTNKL

[5] = target: Procathepsin L (Homo sapiens, UniProt P07711); assay: cathepsin L inhibitors, dose response, counter-screen for M1/M17 aminopeptidase inhibitor project, biochemical, QFRET, 1536-well (AID 2214)
Sequence of Procathepsin L (P07711 whole entry): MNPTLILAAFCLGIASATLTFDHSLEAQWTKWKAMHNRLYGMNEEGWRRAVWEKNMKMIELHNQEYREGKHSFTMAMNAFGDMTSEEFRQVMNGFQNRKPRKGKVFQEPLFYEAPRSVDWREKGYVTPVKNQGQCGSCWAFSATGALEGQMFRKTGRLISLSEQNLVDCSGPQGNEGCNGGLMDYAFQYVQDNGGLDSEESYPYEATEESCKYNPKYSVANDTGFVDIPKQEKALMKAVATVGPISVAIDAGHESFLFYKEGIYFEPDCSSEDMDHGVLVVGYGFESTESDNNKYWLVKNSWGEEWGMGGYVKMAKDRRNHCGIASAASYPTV

[6] = target: Genome polyprotein (dengue virus type 2, UniProt P29990); assay: Dengue-2 NS5 methyltransferase inhibitors, primary screen, biochemical, confirmation dose response (AID 588689); type: functional
Sequence of Genome polyprotein (P29990 2492-3391 limits assumed): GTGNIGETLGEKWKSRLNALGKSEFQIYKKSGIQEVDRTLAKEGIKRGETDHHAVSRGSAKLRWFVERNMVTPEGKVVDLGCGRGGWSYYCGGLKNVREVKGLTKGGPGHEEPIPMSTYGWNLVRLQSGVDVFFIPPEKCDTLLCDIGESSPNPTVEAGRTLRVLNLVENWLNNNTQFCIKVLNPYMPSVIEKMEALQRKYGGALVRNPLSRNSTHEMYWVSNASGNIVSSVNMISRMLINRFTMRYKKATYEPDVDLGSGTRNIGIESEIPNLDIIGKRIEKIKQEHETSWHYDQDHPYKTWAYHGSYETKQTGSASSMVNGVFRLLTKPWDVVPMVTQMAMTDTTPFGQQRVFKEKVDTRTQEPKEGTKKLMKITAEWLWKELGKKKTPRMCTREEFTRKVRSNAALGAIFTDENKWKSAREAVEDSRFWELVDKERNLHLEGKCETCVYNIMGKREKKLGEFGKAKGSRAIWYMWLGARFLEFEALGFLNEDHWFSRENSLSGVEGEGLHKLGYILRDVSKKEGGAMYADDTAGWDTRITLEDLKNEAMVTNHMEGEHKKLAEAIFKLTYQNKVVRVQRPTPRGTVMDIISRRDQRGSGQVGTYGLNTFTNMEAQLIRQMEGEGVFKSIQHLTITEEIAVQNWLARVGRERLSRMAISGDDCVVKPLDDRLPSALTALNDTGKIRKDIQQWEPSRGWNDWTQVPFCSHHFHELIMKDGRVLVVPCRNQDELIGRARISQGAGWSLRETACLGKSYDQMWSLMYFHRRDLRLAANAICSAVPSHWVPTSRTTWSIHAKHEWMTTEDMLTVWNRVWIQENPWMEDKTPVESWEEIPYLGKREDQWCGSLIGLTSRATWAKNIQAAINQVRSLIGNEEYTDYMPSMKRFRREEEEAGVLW

Structure (SMILES)	EC50 [1]	EC50 [2]	IC50 [3]	IC50 [4]	IC50 [5]	IC50 [6]
CCSC1=C(C#N)C(=O)n2c1cc1c2CCCC1	13.6 µM (active)	15.4 µM (active)	–	–	–	–
O=C1/C(=C/c2cccs2)SC(=S)N1NS(=O)(=O)c1ccccc1	–	–	> 73.5 µM (not active)	16.6 µM (active)	> 59.6 µM (not active)	57.4 µM (active)
